# Assay results reported in the RepoRT retention time repository (doi:10.1016/j.chroma.2019.01.023).
# Where a name gives a salt, the structure may show the parent alone.
# Experiments:
# [1] = RP, Phenomenex Kinetex C18, 150 × 2.1 mm, 1.7 µm, 30 °C, 0.3 mL/min, estimated dead time 1.1 min; A: water + 0.1% formic acid, pH 3; B: acetonitrile + 0.1% formic acid, pH 3; gradient (min/%B) 0/2 14/100 17/100 17.1/2 25/2; settings: stereoisomer not certain
# [2] = HILIC, Merck SeQuant ZIC-pHILIC, 150 × 2.1 mm, 5 µm, 40 °C, 0.3 mL/min, estimated dead time 1.1 min; A: acetonitrile; B: water + 2.8 mM ammonium formate, pH 9; gradient (min/%B) 0/5 1/5 10/51 13/51 13.1/5 20/5; settings: stereoisomer not certain
smiles,measurement,setting,value
O=c1ccn(C2CC(O)C(COP(=O)(O)O)O2)c(=O)[nH]1 (stereo not given) [DEOXYURIDINE-MONOPHOSPHATE],LC retention time,[1],1.41 min
same,LC retention time,[2],8.2 min
Nc1ncnc2c1ncn2C1CC(O)C(COP(=O)(O)O)O1 (stereo not given) [DEOXYADENOSINE MONOPHOSPHATE],LC retention time,[1],1.55 min
same,LC retention time,[2],7.95 min
COc1cc(C(O)C(=O)O)ccc1O (stereo not given) [3-METHOXY-4-HYDROXYMANDELATE],LC retention time,[1],2.94 min
same,LC retention time,[2],6.9 min
Cc1cn(C2CC(O)C(COP(=O)(O)OP(=O)(O)OC3OC(CO)C(O)C(O)C3O)O2)c(=O)[nH]c1=O [DTDP-D-GLUCOSE],LC retention time,[1],1.52 min
same,LC retention time,[2],8.93 min
Oc1ccc(O)cc1 [HYDROQUINONE],LC retention time,[1],4.46 min
same,LC retention time,[2],6.29 min
O=c1[nH]c(=O)c2ncn(C3OC(COP(=O)(O)O)C(O)C3O)c2[nH]1 (stereo not given) [XANTHOSINE-MONOPHOSPHATE],LC retention time,[1],1.45 min
same,LC retention time,[2],10.2 min
Cc1ccc(O)c(O)c1 [4-METHYLCATECHOL],LC retention time,[1],3.31 min
Nc1ccccc1S(=O)(=O)O [ANILINE-2-SULFONATE],LC retention time,[1],2.04 min
same,LC retention time,[2],5.89 min
"Nc1ncnc2c1ncn2C1OC(COP(=O)(O)O)C(OP(=O)(O)O)C1O (stereo not given) [ADENOSINE 3',5'-DIPHOSPHATE]",LC retention time,[1],1.36 min
"O=C(O)Cc1ccc(O)c(O)c1 [3,4-DIHYDROXYPHENYLACETATE]",LC retention time,[1],3.93 min
same,LC retention time,[2],7.81 min
NC(=O)c1ccc[n+](C2OC(COP(=O)(O)OP(=O)(O)OCC3OC(n4cnc5c(=O)[nH]cnc54)C(O)C3O)C(O)C2O)c1 (stereo not given) [NICOTINAMIDE HYPOXANTHINE DINUCLEOTIDE],LC retention time,[1],1.45 min
CC(C(=O)O)C(=O)O [METHYLMALONATE],LC retention time,[1],2.19 min
O=C(O)C(=O)Cc1ccccc1 [PHENYLPYRUVATE],LC retention time,[1],4.94 min
same,LC retention time,[2],5.27 min
CCC(C)C(N)C(=O)O (stereo not given) [ISOLEUCINE],LC retention time,[1],1.9 min
same,LC retention time,[2],7.18 min
NC(=O)c1ncn(C2OC(COP(=O)(O)O)C(O)C2O)c1N (stereo not given) [AICAR],LC retention time,[1],1.38 min
same,LC retention time,[2],8.82 min
CCCCCCCCCC(C)=O [2-UNDECANONE],LC retention time,[1],8.62 min
Nc1nc2c(ncn2C2OC(COP(=O)(O)O)C(O)C2O)c(=O)[nH]1 (stereo not given) [GUANOSINE MONOPHOSPHATE],LC retention time,[1],1.41 min
same,LC retention time,[2],9.41 min
O=C(O)Cc1cccc(O)c1 [3-HYDROXYPHENYLACETATE],LC retention time,[1],4.82 min
same,LC retention time,[2],5.88 min
Cc1ncc(COP(=O)(O)O)c(C=O)c1O [PYRIDOXAL-PHOSPHATE],LC retention time,[1],1.5 min
O=C([O-])C=CC(=O)[O-] [MALEATE],LC retention time,[1],1.53 min
same,LC retention time,[2],2.45 min
O=C(O)C=CC(=O)O [FUMARATE],LC retention time,[1],1.88 min
same,LC retention time,[2],9.5 min
"O=C(O)c1cc(O)ccc1[O-] [2,5-DIHYDROXYBENZOATE]",LC retention time,[1],4.46 min
same,LC retention time,[2],6.29 min
"O=C(O)c1cccc(O)c1[O-] [2,3-DIHYDROXYBENZOATE]",LC retention time,[1],4.92 min
same,LC retention time,[2],5.74 min
Nc1ccn(C2CC(O)C(COP(=O)(O)O)O2)c(=O)n1 (stereo not given) [DEOXYCYTIDINE MONOPHOSPHATE],LC retention time,[1],1.4 min
same,LC retention time,[2],8.61 min
O=C(O)C1CCCCN1 (stereo not given) [PIPECOLATE],LC retention time,[1],1.38 min
CCC(C(=O)O)C(=O)O [ETHYLMALONATE],LC retention time,[1],3.46 min
O=Cc1ccccc1 [BENZALDEHYDE],LC retention time,[1],3.93 min
C=C(CC(=O)O)C(=O)O [ITACONATE],LC retention time,[1],3.16 min
CC(=O)N[C@@H]1[C@@H](O)[C@H](O)[C@@H](CO)O[C@H]1N [2-ACETAMIDO-2-DEOXY-BETA-D-GLUCOSYLAMINE],LC retention time,[1],9.58 min
O=S(=O)(O)Oc1c[nH]c2ccccc12 [INDOXYL SULFATE],LC retention time,[1],4.62 min
CC(=O)C1CCC2C3CC=C4CC(OS(=O)(=O)O)CCC4(C)C3CCC12C (stereo not given) [PREGNENOLONE SULFATE],LC retention time,[1],8.69 min
"NCC(N)C(=O)O (stereo not given) [2,3-DIAMINOPROPIONATE]",LC retention time,[1],2.37 min
